{"source": "paper PMC11492828", "about": "(RSC Advances, 2024)", "key": {"[1]": {"system": "human neuroblastoma (SH-SY5Y) cells", "test": "Cytotoxicity/cell viability MTT assay", "type": "cell-based", "details": "for Nature in cytotoxicity study: MTT"}, "PPAR-γ": {"molecular_target": "T1, PPAR-γ (Homo sapiens, UniProt P37231)", "T1 sequence (P37231 1-505)": "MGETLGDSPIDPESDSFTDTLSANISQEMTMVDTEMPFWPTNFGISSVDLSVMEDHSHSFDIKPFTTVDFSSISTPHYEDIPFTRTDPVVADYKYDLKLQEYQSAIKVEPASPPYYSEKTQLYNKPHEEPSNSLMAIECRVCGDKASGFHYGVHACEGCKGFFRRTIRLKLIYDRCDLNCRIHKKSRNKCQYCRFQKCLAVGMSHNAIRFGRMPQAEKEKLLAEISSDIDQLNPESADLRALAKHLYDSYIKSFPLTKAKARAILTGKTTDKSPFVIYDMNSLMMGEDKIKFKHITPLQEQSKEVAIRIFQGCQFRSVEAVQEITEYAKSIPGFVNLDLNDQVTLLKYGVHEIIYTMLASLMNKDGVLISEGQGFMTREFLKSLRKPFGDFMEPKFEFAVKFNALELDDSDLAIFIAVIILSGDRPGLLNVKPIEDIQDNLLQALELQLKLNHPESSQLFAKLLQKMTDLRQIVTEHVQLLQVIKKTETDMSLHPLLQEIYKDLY", "test": "PPAR-γ transactivation assay", "type": "cell-based", "details": "SH-SY5Y cells, 1–16 μM"}, "[2]": {"system": "Aβ-induced SH-SY5Y cell line", "test": "Anti-inflammatory and anti-oxidant activity in the Aβ-induced SH-SY5Y cell line", "type": "cell-based, human", "details": "2.5 to 40 μM, vs pioglitazone"}, "TNF-α": {"system": "TNF-α", "test": "Flow cytometric analysis of TNF-α expression in Aβ-induced SH-SY5Y cells", "type": "cell-based, human"}, "IL-1β": {"system": "IL-1β", "test": "Flow cytometric analysis of IL-1β expression in Aβ-induced SH-SY5Y cells", "type": "cell-based, human"}, "IL-6": {"system": "IL-6", "test": "Flow cytometric analysis of IL-6 expression in Aβ-induced SH-SY5Y cells", "type": "cell-based, human"}, "ROS": {"system": "ROS", "test": "Flow cytometric analysis of ROS in Aβ-induced SH-SY5Y cells", "type": "cell-based, human"}, "[3]": {"details": "Homo sapiens, SH-SY5Y, read-out: IC50 MTT assay, SH-SY5Y cells"}, "[4]": {"details": "read-out: IC50 MTT assay, SH-SY5Y cells"}}, "note": "Where two headings read alike, the source gives them in different places.", "data": [{"smiles": "COc1cc(/C=C/C(C)=N/O)ccc1OCC(=O)Nc1ccccc1", "note": "[Compound 4c, 2-(4-((1E,3E)-3-(Hydroxyimino)but-1-en-1-yl)-2-methoxyphenoxy)-N-phenylacetamide]", "values": [{"measurement": "IC50", "setting": "[1]; [3]", "value": 50.7, "unit": "µM"}, {"measurement": "Nature in cytotoxicity study", "setting": "[1]; SH-SY5Y cells", "value": "cytotoxic"}]}, {"smiles": "COc1cc(/C=C/C(C)=N/O)ccc1OCC(=O)Nc1cccc(C)c1", "note": "[Compound 4h, 2-(4-((1E,3E)-3-(Hydroxyimino)but-1-en-1-yl)-2-methoxyphenoxy)-N-(m-tolyl)acetamide]", "values": [{"measurement": "IC50", "setting": "[1]; [3]", "value": 150, "unit": "µM"}, {"measurement": "Nature in cytotoxicity study", "setting": "[1]; SH-SY5Y cells", "value": "cell proliferative and non-cytotoxic"}, {"measurement": "IC50", "setting": "[1]; [4]", "value": "> 100", "unit": "µM"}, {"measurement": "PPAR-γ transcriptional activity", "setting": "PPAR-γ", "value": "dose-dependent enhancement"}, {"measurement": "Anti-inflammatory and anti-oxidant activity (expression of pro-inflammatory cytokines and ROS)", "setting": "[2]", "value": "promising anti-inflammatory activity and anti-oxidant activity"}]}, {"smiles": "CC(/C=C/c1ccc(OCC(=O)Nc2ccccc2)cc1)=N\\O", "note": "[Compound 4i, 2-(4-((1E,3E)-3-(Hydroxyimino)but-1-en-1-yl)phenoxy)-N-phenylacetamide]", "values": [{"measurement": "IC50", "setting": "[1]; [3]", "value": 82.3, "unit": "µM"}, {"measurement": "Nature in cytotoxicity study", "setting": "[1]; SH-SY5Y cells", "value": "cytotoxic"}]}, {"smiles": "CC(/C=C/c1ccc(OCC(=O)Nc2ccccc2F)cc1)=N\\O", "note": "[Compound 4f, N-(2-Fluorophenyl)-2-(4-((1E,3E)-3-(hydroxyimino)but-1-en-1-yl)phenoxy)acetamide]", "values": [{"measurement": "IC50", "setting": "[1]; [3]", "value": 66.7, "unit": "µM"}, {"measurement": "Nature in cytotoxicity study", "setting": "[1]; SH-SY5Y cells", "value": "cytotoxic"}]}, {"smiles": "COc1cc(/C=C/C(C)=N/O)ccc1OCC(=O)Nc1ccccc1C", "note": "[Compound 4e, 2-(4-((1E,3E)-3-(Hydroxyimino)but-1-en-1-yl)-2-methoxyphenoxy)-N-(o-tolyl)acetamide]", "values": [{"measurement": "IC50", "setting": "[1]; [3]", "value": 79.7, "unit": "µM"}, {"measurement": "Nature in cytotoxicity study", "setting": "[1]; SH-SY5Y cells", "value": "cytotoxic"}]}, {"smiles": "CCc1ccc(CCOc2ccc(CC3SC(=O)NC3=O)cc2)nc1", "note": "(stereo not shown) [Pioglitazone, pioglitazone]", "values": [{"measurement": "TNF-α% cell expression", "setting": "TNF-α; Aβ 10 μM + 2.5 μM compound", "value": 67.8, "unit": "%"}, {"measurement": "TNF-α% cell expression", "setting": "TNF-α; Aβ 10 μM + 5 μM compound", "value": 53.92, "unit": "%"}, {"measurement": "TNF-α% cell expression", "setting": "TNF-α; Aβ 10 μM + 10 μM compound", "value": 24.85, "unit": "%"}, {"measurement": "TNF-α% cell expression", "setting": "TNF-α; Aβ 10 μM + 20 μM compound", "value": 9.8, "unit": "%"}, {"measurement": "TNF-α% cell expression", "setting": "TNF-α; Aβ 10 μM + 40 μM compound", "value": 5.5, "unit": "%"}, {"measurement": "IL-1β% cell expression", "setting": "IL-1β; Aβ 10 μM + 2.5 μM compound", "value": 70.21, "unit": "%"}, {"measurement": "IL-1β% cell expression", "setting": "IL-1β; Aβ 10 μM + 5 μM compound", "value": 52.38, "unit": "%"}, {"measurement": "IL-1β% cell expression", "setting": "IL-1β; Aβ 10 μM + 10 μM compound", "value": 32.36, "unit": "%"}, {"measurement": "IL-1β% cell expression", "setting": "IL-1β; Aβ 10 μM + 20 μM compound", "value": 15.15, "unit": "%"}, {"measurement": "IL-1β% cell expression", "setting": "IL-1β; Aβ 10 μM + 40 μM compound", "value": 10.76, "unit": "%"}, {"measurement": "IL-6% cell expression", "setting": "IL-6; Aβ 10 μM + 2.5 μM compound", "value": 42.95, "unit": "%"}, {"measurement": "IL-6% cell expression", "setting": "IL-6; Aβ 10 μM + 5 μM compound", "value": 30.23, "unit": "%"}, {"measurement": "IL-6% cell expression", "setting": "IL-6; Aβ 10 μM + 10 μM compound", "value": 15.09, "unit": "%"}, {"measurement": "IL-6% cell expression", "setting": "IL-6; Aβ 10 μM + 20 μM compound", "value": 9.51, "unit": "%"}, {"measurement": "IL-6% cell expression", "setting": "IL-6; Aβ 10 μM + 40 μM compound", "value": 12.31, "unit": "%"}, {"measurement": "ROS% cell expression", "setting": "ROS; Aβ 10 μM + 2.5 μM compound", "value": 60.98, "unit": "%"}, {"measurement": "ROS% cell expression", "setting": "ROS; Aβ 10 μM + 5 μM compound", "value": 53.96, "unit": "%"}, {"measurement": "ROS% cell expression", "setting": "ROS; Aβ 10 μM + 10 μM compound", "value": 41.78, "unit": "%"}, {"measurement": "ROS% cell expression", "setting": "ROS; Aβ 10 μM + 20 μM compound", "value": 21.01, "unit": "%"}, {"measurement": "ROS% cell expression", "setting": "ROS; Aβ 10 μM + 40 μM compound", "value": 9.07, "unit": "%"}]}, {"smiles": "COc1cc(/C=C/C(C)=N/O)ccc1OCC(=O)Nc1ccc(Cl)cc1", "note": "[Compound 4a, N-(4-Chlorophenyl)-2-(4-((1E,3E)-3-(hydroxyimino)but-1-en-1-yl)-2methoxyphenoxy)acetamide]", "values": [{"measurement": "IC50", "setting": "[1]; [3]", "value": 108, "unit": "µM"}, {"measurement": "Nature in cytotoxicity study", "setting": "[1]; SH-SY5Y cells", "value": "cell proliferative and non-cytotoxic"}, {"measurement": "IC50", "setting": "[1]; [4]", "value": "> 100", "unit": "µM"}, {"measurement": "PPAR-γ transcriptional activity", "setting": "PPAR-γ", "value": "dose-dependent enhancement"}, {"measurement": "Anti-inflammatory and anti-oxidant activity (expression of pro-inflammatory cytokines and ROS)", "setting": "[2]", "value": "promising anti-inflammatory activity and anti-oxidant activity"}]}, {"smiles": "COc1cc(/C=C/C(C)=N/O)ccc1OCC(=O)Nc1ccc(C)cc1", "note": "[Compound 4b, 2-(4-((1E,3E)-3-(Hydroxyimino)but-1-en-1-yl)-2-methoxyphenoxy)-N-(p-tolyl)acetamide]", "values": [{"measurement": "IC50", "setting": "[1]; [3]", "value": 112, "unit": "µM"}, {"measurement": "Nature in cytotoxicity study", "setting": "[1]; SH-SY5Y cells", "value": "cell proliferative and non-cytotoxic"}]}]}
